Like-named read-outs stand apart in the source and are kept apart here.
Experiments:
Assay type in all cases: cell-based, human
[1] = tested on: MDA-6 (WAF1/CIP1/SDI1) protein; experiment: Immunoprecipitation of MDA-6 (WAF1/CIP1/SDI1) protein in HL-60 cells; details: TPA, DMSO (1%) or RA (1 μM), 12, 24, 48 and 72 h tested
Procedure: Immunoprecipitation analyses were performed as described previously (Duigou et al., 1991; Su et al. 1993). Logarithmically growing HL-60 cells were either untreated or treated for 12, 24, 48 or 72 h with TPA ([…]), RA (1 μM) or DMSO (1%) in 10-cm plates. Cultures were starved of methionine for 1 h at 37° C. in methionine-free medium, cells were concentrated by pelleting and labeled for 4 h at 37° C. in 1 ml of the same medium with 100 μCi of [^35S] (NEN; Express ^35S). After labeling, the cells were washed twice with ice-cold phosphate-buffered saline and lysed for 1 h on ice by the addition of RIPC (20 mM Tris-base, pH 7.5, 500 mM NaCl, 0.05% Nonidet P-40, 100 μg/ml phenylmethylsulfonyl fluoride and 0.02% sodium azide). The lysate was clarified by centrifugation in an Eppendorf microfuge at 10,000×g for 10 min at 4° C. Samples containing 4×10^6 counts were incubated with 2 μg of WAF1/CIP1 (C-19) (Santa Cruz Biotechnology) (or MDA-6 peptide-derived) rabbit polyclonal IgG or actin monoclonal antibody (Oncogene Sciences) with rocking at 4° C. for 24 h. The next day, 30 μl (packed volume) of protein G-agarose (Oncogene Sciences) was added to each tube, and incubation with rocking at 4° C. continued for another hour. The protein G pellets were then washed five times with 1 ml of ice-cold RIPC:phosphate-buffered saline (1:1, v/v). Thirty μl of sodium dodecyl sulfate-polyacrylamide gel electrophoresis buffer were added to the pellets, and the sample was heated at 87° C. for 3 min. The samples were loaded onto an 10% polyacrylamide gel and run overnight at 40 V. The gel contained Rainbow protein markers (Amersham) for sizing. Gels were fixed with 10% acetic acid plus 10% methanol for 30 min, incubated in DMSO for 30 min, incubated with 10% 2,5-diphenyloxazole in DMSO for 30 min, washed three times with cold water (10 min each), dried and exposed to film.

[2] = tested on: mda-6 (WAF1/CIP1/SDI1); details: HL-525; CHX 10 μg/ml 1, 3, 6 or 10 h, without or with TPA 3 nM
Procedure: HL-60 cells were originally provided by Dr. R. C. Gallo (National Cancer Institute, Bethesda, Md.) (Collins et al., 1978; Huberman & Callaham, 1979). HL-60 cells designated HL-525 were derived by cloning HL-60 cells after subculturing 102 times in the presence of increasing concentrations (up to 3 μM) of TPA at 5- to 8-day intervals (Homma et al., 1986; Mitchell et al., 1986). […] Prior to the experiments described in this study, the HL-525 cells were subcultured more than 20 times in the absence of TPA. Cells were grown in 100-mm tissue culture dishes in RPMI 1640 medium supplemented with 20% fetal bovine serum, penicillin (100 units/ml) and streptomycin (100 μg/ml) (Grand Island Biological Co., NY) at 37° C. in an atmosphere of 5% CO2 in air in a humidified incubator. The 1,25-(OH)2D3(Vit D3) and TPA were dissolved in a final concentration of 0.01% DMSO, and all-trans retinoic acid (RA) was dissolved in 0.1% DMSO in culture medium. […] Control cultures were treated with DMSO at a final concentration of 0.1% in culture medium. For experiments designed to test the effect of DMSO on HL-60 and HL-525 cells, DMSO was added to tissue culture medium at a final concentration of 1%. Stock solutions of CHX (10 mg/ml) were prepared in culture medium. CHX was added at a final concentration of 10 μg/ml. To examine a requirement for protein synthesis on mda-6 gene expression, HL-60 or HL-525 cells were seeded into 150 mm Petri dishes (5×10^5 cells/ml) in 30 ml of medium. CHX was added to a final concentration of 10 μg/ml 15 min prior to the addition of TPA to 3 nM. Cells were harvested at various times after addition of TPA for subsequent RNA isolation and analysis.
RNA was purified by centrifugation through a CsC1 cushion as described by Chirgwin et al. (1979). Ten μg of RNA was denatured with glyoxal/DMSO, electrophoresed on 1.0% agarose gels, transferred to nylon membranes, hybridized to a ^32P-labeled mda-6 probe (Jiang and Fisher, 1993) and then after stripping the membrane hybridized to a ^32P-labeled rat GAPDH probe (Fort et al., 1985), as described previously (Reddy et at., 1991; Su et al., 1991; Jiang et al., 1992). Following hybridization, the filters were washed and exposed for autoradiography (Reddy et al., 1991; Su et al., 1991; Jiang et al., 1992). mda-6 and GAPDH gene expression were also determined by reverse transcription-polymerase chain reaction (RT-PCR) as described (Adollahi et al. 1991; Lin et al., 1994). Total cytoplasmic RNA was treated with 0.5 units DNase (Boehringer-Mannheim Biochemicals)/μg RNA in 15% glycerol, 10 mM Tris, pH 7.5, 2.5 mM MgCl2, 0.1 mM EDTA, 80 mM KC1, 1 mM CaCl2 and 1 unit/ml RNasin (Promega) at 30° C. for 10 min. RNA was extracted with phenol-chloroform, precipitated with sodium acetate/ethanol and RNA pellets were resuspended in diethylpyrocarbonate-treated H2O. One μg of total RNA was reverse transcribed with 200 units of murine leukemia virus reverse transcriptase (Bethesda Research Laboratories) in 20 μl containing 1 mM deoxyribonucleotide triphosphates, 4 mM MgCl2, 10 mM Tris, pH 8.3, 50 mM KC1, 0.001% gelatin and 0.2 μg oligo-dT primer. Samples were diluted to 100 μl with buffer containing 0.2 mM deoxyribonucleotide triphosphates, 2 mM MgCl2, 10 mM Tris, pH 8.3, 50 mM KC1 and 0.001% gelatin. […]

[3] = tested on: mda-6 (WAF1/CIP1/SDI1); experiment: Induction of mda-6 (WAF1/CIP1/SDI1) expression in HL-60 cells (Northern blotting, RT-PCR); details: CHX 10 μg/ml 1, 3, 6 or 10 h, without or with TPA 3 nM
Procedure: HL-60 cells were originally provided by Dr. R. C. Gallo (National Cancer Institute, Bethesda, Md.) (Collins et al., 1978; Huberman & Callaham, 1979). HL-60 cells designated HL-525 were derived by cloning HL-60 cells after subculturing 102 times in the presence of increasing concentrations (up to 3 μM) of TPA at 5- to 8-day intervals (Homma et al., 1986; Mitchell et al., 1986). […] Prior to the experiments described in this study, the HL-525 cells were subcultured more than 20 times in the absence of TPA. Cells were grown in 100-mm tissue culture dishes in RPMI 1640 medium supplemented with 20% fetal bovine serum, penicillin (100 units/ml) and streptomycin (100 μg/ml) (Grand Island Biological Co., NY) at 37° C. in an atmosphere of 5% CO2 in air in a humidified incubator. The 1,25-(OH)2D3(Vit D3) and TPA were dissolved in a final concentration of 0.01% DMSO, and all-trans retinoic acid (RA) was dissolved in 0.1% DMSO in culture medium. […]
RNA was purified by centrifugation through a CsC1 cushion as described by Chirgwin et al. (1979). […] Following hybridization, the filters were washed and exposed for autoradiography (Reddy et al., 1991; Su et al., 1991; Jiang et al., 1992). mda-6 and GAPDH gene expression were also determined by reverse transcription-polymerase chain reaction (RT-PCR) as described (Adollahi et al. 1991; Lin et al., 1994). […]

Row | SMILES | time of treatment at which MDA-6 protein is detected [1] | mda-6 expression in the presence of cycloheximide [2] | mda-6 expression in the presence of cycloheximide [3]
1 | C[S+](C)[O-] [DMSO, dimethyl sulfoxide] | 48 h | – | –
2 | C[C@@H]1C[C@@H]([C@H](O)CC2CC(=O)NC(=O)C2)C(=O)[C@@H](C)C1 [CHX, cycloheximide] | – | induces mda-6 expression | induction of mda-6
